Experimental data as given in patent US11213032B2, “Insecticidal compounds” (SYNGENTA PARTICIPATIONS AG, priority 2017, dated 2022).

Experiments:
Type in all cases: in vivo
[1] = test system: Euschistus heros (Neotropical Brown Stink Bug); assay: Euschistus heros (neotropical brown stink bug) on soybean leaves, spray; details: 120 h, N2 nymphs, 5 days after infestation, read-out: effect in at least one of the two categories (mortality or growth inhibition)
Method: Euschistus heros (Neotropical Brown Stink Bug)
Soybean leaves on agar in 24-well microtiter plates were sprayed with aqueous test solutions prepared from 10,000 ppm DMSO stock solutions. After drying the leaves were infested with N2 nymphs. The samples were assessed for mortality and growth inhibition in comparison to untreated samples 5 days after infestation.

[2] = test system: Thrips tabaci (Onion thrips); assay: Thrips tabaci (onion thrips) feeding/contact activity; details: 144 h, mixed ages, 6 days after infestation
Method: Thrips tabaci (Onion thrips) Feeding/Contact Activity
(§1) Sunflower leaf discs were placed on agar in 24-well microtiter plates and sprayed with aqueous test solutions prepared from 10,000 ppm DMSO stock solutions. After drying the leaf discs were infested with a thrips population of mixed ages. The samples were assessed for mortality 6 days after infestation.

[3] = test system: Plutella xylostella (Diamond Back Moth); assay: Plutella xylostella (diamond back moth) feeding/contact activity; details: 120 h, L2 larvae, artificial diet, 5 days after infestation
Method: Plutella xylostella (Diamond Back Moth): Feeding/Contact Activity
24-well microtiter plates with artificial diet were treated with aqueous test solutions prepared from 10,000 ppm DMSO stock solutions by pipetting. After drying, the plates were infested with L2 larvae (10 to 15 per well). The samples were assessed for mortality 5 days after infestation.

[4] = test system: Tetranychus urticae (Two-Spotted Spider Mite); assay: whole plant or invertebrate; details: 192 h
Method: Tetranychus urticae (Two-Spotted Spider Mite): Feeding/Contact Activity
as §1, with “Bean” for “Sunflower”, “discs” for “discs were placed”, “were” for “and”, “mite” for “thrips”, “on mixed population (mobile stages) 8” for “6”

[5] = test system: Spodoptera littoralis (Egyptian Cotton Leaf Worm); assay: Spodoptera littoralis (Egyptian cotton leaf worm) on cotton leaf discs; details: foliar, 72 h, L1 larvae, 3 days after infestation
Method: Spodoptera littoralis (Egyptian Cotton Leaf Worm)
Cotton leaf discs were placed onto agar in 24-well microtiter plates and sprayed with aqueous test solutions prepared from 10,000 ppm DMSO stock solutions. After drying the leaf discs were infested with five L1 larvae. The samples were assessed for mortality, anti-feeding effect, and growth inhibition in comparison to untreated samples 3 days after infestation. Control of Spodoptera littoralis by a test sample is given when at least one of the categories mortality, anti-feedant effect, and growth inhibition is higher than the untreated sample.

[6] = test system: Diabrotica balteata (Corn Root Worm); assay: Diabrotica balteata (corn root worm) on maize sprouts, spray; details: 96 h, L2 larvae, 4 days after infestation, read-out: effect in at least one of the two categories (mortality or growth inhibition)
Method: Diabrotica balteata (Corn Root Worm)
Maize sprouts placed onto an agar layer in 24-well microtiter plates were treated with aqueous test solutions prepared from 10,000 ppm DMSO stock solutions by spraying. After drying, the plates were infested with L2 larvae (6 to 10 per well). The samples were assessed for mortality and growth inhibition in comparison to untreated samples 4 days after infestation.

[7] = test system: Myzus persicae (Green Peach Aphid); assay: Myzus persicae (green peach aphid) feeding/contact activity; details: 144 h, mixed ages, 6 days after infestation
Method: Myzus persicae (Green Peach Aphid): Feeding/Contact Activity
Sunflower leaf discs were placed onto agar in a 24-well microtiter plate and sprayed with aqueous test solutions prepared from 10,000 ppm DMSO stock solutions. After drying, the leaf discs were infested with an aphid population of mixed ages. The samples were assessed for mortality 6 days after infestation.

CCOC1=NOC(NC(=O)c2ccc(N3CCC(c4cc(Cl)cc(Cl)c4)(C(F)(F)F)C3)cc2C)C1 (stereo not shown) [Compound A02, 4-[3-(3,5-dichlorophenyl)-3-(trifluoromethyl)pyrrolidin-1-yl]-N-(3-ethoxy-4,5-dihydroisoxazol-5-yl)-2-methyl-benzamide]
≥ 80%: percent effect (mortality or growth inhibition) at 200 ppm [1] | mortality at 200 ppm [2] | mortality at 200 ppm [3] | mortality at 200 ppm [4] | percent control (mortality, anti-feedant effect or growth inhibition) at 200 ppm [5] | percent effect (mortality or growth inhibition) at 200 ppm [6]

CCOC1=NOC(NC(=O)c2ccc(C3=NS[C@](c4cc(Cl)cc(Cl)c4)(C(F)(F)F)C3)cc2C)C1 (stereo partly drawn) [Compound A01, 4-[(5R)-5-(3,5-dichlorophenyl)-5-(trifluoromethyl)-4H-isothiazol-3-yl]-N-(3-ethoxy-4,5-dihydroisoxazol-5-yl)-2-methyl-benzamide]
≥ 80%: mortality at 200 ppm [7] | percent effect (mortality or growth inhibition) at 200 ppm [1] | mortality at 200 ppm [2] | mortality at 200 ppm [3] | mortality at 200 ppm [4] | percent control (mortality, anti-feedant effect or growth inhibition) at 200 ppm [5] | percent effect (mortality or growth inhibition) at 200 ppm [6]
